Results reported in PubChem BioAssay AID1963852 (Molecular Pharmacology Branch, DTP, NCI, 2024).

Test system: 282377-053-R-J1-PDC complex spheroid viability
Assay: Anticancer human tumor 282377-053-R-J1-PDC patient-derived colon adenocarcinoma cell line growth inhibition [POLQ]
Conditions: for IC50: curve of first compound; for viability, T/C: stronger effect = lower value; active means viability on the fitted dose curve at most 10% of control; inactive means the rest
Procedure, shortened: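 PDC + HUVEC + MSC complex spheroids; POLQ inhibitors ± partner drugs; top conc. at/near clinical Cmax, else 10 microM (SN-38 1 microM), half-log dilutions; 37 degrees C, 5% CO2.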

[1] = second compound 0.0316 µM, first compound 0.00316 µM
[2] = second compound 0.0316 µM, first compound 0.01 µM
[3] = second compound 0.0316 µM, first compound 0.0316 µM
[4] = second compound 0.0316 µM, first compound 0.1 µM
[5] = second compound 0.1 µM, first compound 0.00316 µM
[6] = second compound 0.1 µM, first compound 0.01 µM
[7] = second compound 0.1 µM, first compound 0.0316 µM
[8] = second compound 0.1 µM, first compound 0.1 µM
[9] = second compound 0.316 µM, first compound 0.00316 µM
[10] = second compound 0.316 µM, first compound 0.01 µM
[11] = second compound 0.316 µM, first compound 0.0316 µM
[12] = second compound 0.316 µM, first compound 0.1 µM
[13] = second compound 1 µM, first compound 0.00316 µM
[14] = second compound 1 µM, first compound 0.01 µM
[15] = second compound 1 µM, first compound 0.0316 µM
[16] = second compound 1 µM, first compound 0.1 µM
[17] = second compound 3.16 µM, first compound 0.00316 µM
[18] = second compound 3.16 µM, first compound 0.01 µM
[19] = second compound 3.16 µM, first compound 0.0316 µM
[20] = second compound 3.16 µM, first compound 0.1 µM
[21] = second compound 10 µM, first compound 0.00316 µM
[22] = second compound 10 µM, first compound 0.01 µM
[23] = second compound 10 µM, first compound 0.0316 µM
[24] = second compound 10 µM, first compound 0.1 µM
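Further: spheroids exposed to compounds for seven days.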
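Wherever viability, T/C is given: 100% = DMSO vehicle control viability.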

CC[C@@]1(O)C(=O)OCc2c1cc1n(c2=O)Cc2cc3c(CN(C)C)c(O)ccc3nc2-1 + Nc1ccc(C#CCN(C(=O)Cc2ncc(C(F)(F)F)cc2C(F)(F)F)c2ccc(F)cc2)nn1
> 0.1 µM: IC50 (second compound 0.0316 µM) | IC50 (second compound 0.1 µM) | IC50 (second compound 0.316 µM) | IC50 (second compound 1 µM) | IC50 (second compound 3.16 µM) | IC50 (second compound 10 µM)
inactive: viability, T/C (second compound 0.0316 µM, first compound 0.000316 µM) 117% | viability, T/C (second compound 0.0316 µM, first compound 0.001 µM) 90.7% | viability, T/C [1] 124% | viability, T/C [2] 103% | viability, T/C [3] 96.5% | viability, T/C [4] 99.8% | viability, T/C (second compound 0.1 µM, first compound 0.000316 µM) 91.1% | viability, T/C (second compound 0.1 µM, first compound 0.001 µM) 99.2% | viability, T/C [5] 91% | viability, T/C [6] 94.7% | viability, T/C [7] 103% | viability, T/C [8] 102% | viability, T/C (second compound 0.316 µM, first compound 0.000316 µM) 97.1% | viability, T/C (second compound 0.316 µM, first compound 0.001 µM) 94.8% | viability, T/C [9] 91.7% | viability, T/C [10] 79.3% | viability, T/C [11] 101% | viability, T/C [12] 101% | viability, T/C (second compound 1 µM, first compound 0.000316 µM) 95.2% | viability, T/C (second compound 1 µM, first compound 0.001 µM) 88.9% | viability, T/C [13] 83% | viability, T/C [14] 85% | viability, T/C [15] 102% | viability, T/C [16] 91.1% | viability, T/C (second compound 3.16 µM, first compound 0.000316 µM) 95.8% | viability, T/C (second compound 3.16 µM, first compound 0.001 µM) 95.7% | viability, T/C [17] 94.2% | viability, T/C [18] 95.4% | viability, T/C [19] 103% | viability, T/C [20] 91.8% | viability, T/C (second compound 10 µM, first compound 0.000316 µM) 111% | viability, T/C (second compound 10 µM, first compound 0.001 µM) 93.7% | viability, T/C [21] 124% | viability, T/C [22] 112% | viability, T/C [23] 112% | viability, T/C [24] 127%

CCc1c2c(nc3ccc(O)cc13)-c1cc3c(c(=O)n1C2)COC(=O)[C@]3(O)CC + Nc1ccc(C#CCN(C(=O)Cc2ncc(C(F)(F)F)cc2C(F)(F)F)c2ccc(F)cc2)nn1
0.86 µM: IC50 (second compound 10 µM)
inactive: viability, T/C [1] 99.3% | viability, T/C [2] 96.8% | viability, T/C [3] 80.7% | viability, T/C [4] 78.3% | viability, T/C (second compound 0.0316 µM, first compound 0.316 µM) 69.9% | viability, T/C (second compound 0.0316 µM, first compound 1 µM) 58.8% | viability, T/C [5] 92% | viability, T/C [6] 84.3% | viability, T/C [7] 86% | viability, T/C [8] 72.8% | viability, T/C (second compound 0.1 µM, first compound 0.316 µM) 62.9% | viability, T/C (second compound 0.1 µM, first compound 1 µM) 49.4% | viability, T/C [9] 101% | viability, T/C [10] 92.3% | viability, T/C [11] 75.4% | viability, T/C [12] 74.4% | viability, T/C (second compound 0.316 µM, first compound 0.316 µM) 60.4% | viability, T/C (second compound 0.316 µM, first compound 1 µM) 46.8% | viability, T/C [13] 107% | viability, T/C [14] 91.7% | viability, T/C [15] 99.8% | viability, T/C [16] 66.9% | viability, T/C (second compound 1 µM, first compound 0.316 µM) 61.8% | viability, T/C (second compound 1 µM, first compound 1 µM) 51.6% | viability, T/C [17] 108% | viability, T/C [18] 87.1% | viability, T/C [19] 83.8% | viability, T/C [20] 70.6% | viability, T/C (second compound 3.16 µM, first compound 0.316 µM) 60.4% | viability, T/C (second compound 3.16 µM, first compound 1 µM) 51.5% | viability, T/C [21] 116% | viability, T/C [22] 127% | viability, T/C [23] 97.1% | viability, T/C [24] 80.3% | viability, T/C (second compound 10 µM, first compound 0.316 µM) 64.3% | viability, T/C (second compound 10 µM, first compound 1 µM) 46.4%
0.945 µM: IC50 (second compound 0.1 µM)
0.808 µM: IC50 (second compound 0.316 µM)
> 1 µM: IC50 (second compound 0.0316 µM) | IC50 (second compound 1 µM) | IC50 (second compound 3.16 µM)
